Measurements: US8394829B2, “Bi-functional quinoline analogs” (Gilead Sciences, Inc., priority 2010, dated 2013)

What was measured:
Human recombinant PDE4B2 = target: T1, Human recombinant PDE4B2 (Homo sapiens, UniProt Q07343); assay: Inhibition of PDE4B4 enzyme activity (PDE Glo Assay); type: biochemical; conditions: human recombinant PDE4B2, 50 nM cAMP; read-out: PDE4 IC50
T1 construct: purchased BPS Bioscience
Protocol: Biological Examples Inhibition of PDE4B4 Enzyme Activity
The inhibitory activity of test compounds were determined using the PDE Glo Assay (Promega, V1361). The PDE-Glo Reaction Buffer was prepared (1 mL 5× buffer+4 mL water) and 150 nM solution of test compound dissolved in the Reaction Buffer, followed by 1:3 serial dilutions into Reaction Buffer. […] Human recombinant PDE4B2 (BPS Bioscience) was added to test compound in Reaction Buffer at a concentration of 0.12 nM per reaction. The enzyme and test compound were pre-incubated together at rt for 10 min. 50 nM of the enzyme substrate cAMP was then added to initiate the enzyme reaction, with the reaction terminated after one hour. Termination Buffer (1 mL 5× termination buffer+3.9 mL water+100 μL of 100 mM IBMX (ICN Chemicals, in DMSO)), was added to each reaction well to terminate the reaction. Detection Buffer (1 mL 5×PDE-Glo Detection buffer+3.96 mL water+40 μL PKA (supplied in kit)) was added to the cAMP-enzyme-test compound mix and this secondary reaction proceeded for 20 minutes at rt. An equal volume of Kinase Glo Reagent was then added to the reaction mixture and after 10 min luminescence was measured using a luminometer (EnVision, 0.1 sec read for luminescence). Luminescence values were […] related to levels of cAMP in the reaction mixture. Data were plotted as relative light units (RLU) versus test compound concentration and the IC50 determined using GraphPad Prism 5.0, using a nonlinear curve fit in a single-site binding model.
IC50 determinations for the compounds presented above are seen in the first column of Table 1 (PDE4IC50).

[1] = target: T2, human recombinant beta-2 adrenoreceptors (Homo sapiens, UniProt P07550); assay: Functional agonism of human recombinant beta-2 adrenoreceptors expressed in CHO cells (cAMP HTRF); type: cell-based; conditions: CHO cells expressing human beta-2 adrenoreceptors, cAMP elevation, 30 min
T2 construct: expressed in transfected cells; host or cells: CHO cells
T2 sequence (P07550 whole entry): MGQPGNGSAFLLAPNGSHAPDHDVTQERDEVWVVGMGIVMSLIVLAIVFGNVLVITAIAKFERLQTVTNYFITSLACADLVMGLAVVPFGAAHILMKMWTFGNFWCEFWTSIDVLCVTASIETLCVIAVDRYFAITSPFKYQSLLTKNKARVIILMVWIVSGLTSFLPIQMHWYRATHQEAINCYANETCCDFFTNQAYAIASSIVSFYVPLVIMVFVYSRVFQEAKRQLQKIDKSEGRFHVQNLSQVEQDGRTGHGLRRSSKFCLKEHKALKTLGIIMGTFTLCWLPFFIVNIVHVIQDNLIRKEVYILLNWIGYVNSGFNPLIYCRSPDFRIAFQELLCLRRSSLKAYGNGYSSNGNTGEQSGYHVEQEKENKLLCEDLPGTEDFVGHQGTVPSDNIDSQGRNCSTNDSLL
Protocol: Functional Agonism of Human Recombinant Beta-2 Adrenoreceptors Expressed in Chinese Hamster Oocytes (CHO)
Test compounds were incubated for 30 min with CHO cells expressing the human recombinant beta-2 adrenoreceptors. Agonism of the receptor was measured by the elevation of intracellular cyclic-AMP over control levels detected using a homogeneous time resolved fluorescence (HTRF) format. Compounds were determined to be “full” or “partial” agonists based on the maximum level of cAMP accumulated compared to the control compound isoproterenol which is a full agonist in this assay system. Concentration response curves were generated for test compounds and the EC50 (molar concentration of the agonist which produced 50% of the maximal response for that compound) was determined. These assays were performed using a protocol based on the original description of the assay by Baker, J. G. (2005) Brit. J. Pharmacol.; 144:317-322.
EC50 determinations for the compounds presented above are seen in the third column of Table 1 (Beta 2 EC50).

[2] = target: T2, human recombinant beta-2 adrenoreceptors; assay: Beta-2 adrenoceptor binding assay ([3H](−)CGP-12177 displacement); conditions: CHO cells expressing human beta-2 adrenoreceptors, [3H](−)CGP-12177 0.3 nM, 120 min
Protocol: Beta-2 Adrenoceptor Binding Assay
Test compounds were incubated for 120 min with Chinese hamster oocyte (CHO) cells expressing the human recombinant beta-2 adrenoreceptors. Binding of test compounds to the beta-2 adrenoreceptors was determined by measuring the displacement of the radiolabeled ligand [^3H](−)CGP-12177 (0.3 nM) from the receptor measured by a scintillation counting. Concentration response curves were generated for test compounds and the IC50 (molar concentration of the compound which produced 50% inhibition for the maximal response for that compound) was determined. These assays were performed using a protocol based on the original description of the assay by Joseph et al., (2004) Naun.-Sch. Arch. Pharm.; 369:525-532.
IC50 determinations for the compounds presented above are seen in the second column of Table 1 (Beta 2 IC50).

[3] = system: LPS-induced TNF-α release from human peripheral blood mononuclear cells (PBMC); assay: Inhibition of LPS-induced TNF-α release from human PBMC; type: cell-based; conditions: LPS 0.4 ng/mL, 6 h, presence or absence of ICI-118551 not given
Excerpt: Inhibition of Lipopolysaccharide (LPS)-Induced Tumour Necrosis Factor Alpha (TNF-α) Release from Human Peripheral Blood Mononuclear Cells (PBMC)
Human whole blood was drawn from donors and cell purification initiated within two hours. Peripheral blood mononuclear cells (PBMC) were purified using a standard Ficoll gradient purification technique and aliquoted at a concentration of 100,000 cells/well in 96 well plates. Beta-2 adrenoreceptor agonists are also anti-inflammatory for some immune cells expressing the receptor and in this assay they can inhibit tumor necrosis factor-alpha (TNF-α) production. Therefore PBMC were pre-incubated for 30 min in the presence of the beta-2 adrenoreceptor antagonist ICI-118551 [3-(isopropylamino)-1-[(7-methyl-4-indanyl)oxy]butan-2-ol] (10 μM) to determine the PDE4 directed activity of test compounds, and in the absence of ICI-118551 for the combined PDE4 and beta-2 receptor directed activity. Test compounds were dissolved in DMSO and diluted in buffer (final DMSO concentration of 0.1% v/v) and were then added to the cell suspensions and pre-incubated for a further 1 h at 37° C. LPS solution was then added (0.4 ng/mL) and the cells incubated for a further 6 h. At the end of the incubation period the cell supernatants were collected and TNF-α was measured using a Procarta Cytokine Assay Kit (Affymetrix, Santa Clara, Calif.) according to the manufacturers' instructions. Data were analyzed using MiraiBio Masterplex QT v4.0 software (MasterPlex Version 1.0.1.18 Copyright 2008, Hitachi Software Engineering Co., Ltd) and used to extrapolate Mean Fluorescence Intensity (MFI) into concentrations of TNF-α and mean values from replicate wells were determined. Inhibition curves were plotted using a nonlinear curve fit employing a single-site binding model to determine the IC50 value for each test compound in the presence or absence of ICI-118551 using GraphPad Prism 5 for Windows, version 5.02 (GraphPad Software, San Diego Calif.).
EC50 determinations for the compounds presented above are seen in the fourth column of Table 1 (PBMC TNF EC50).

T1 sequence (Q07343 1-564 isoform Q07343-2): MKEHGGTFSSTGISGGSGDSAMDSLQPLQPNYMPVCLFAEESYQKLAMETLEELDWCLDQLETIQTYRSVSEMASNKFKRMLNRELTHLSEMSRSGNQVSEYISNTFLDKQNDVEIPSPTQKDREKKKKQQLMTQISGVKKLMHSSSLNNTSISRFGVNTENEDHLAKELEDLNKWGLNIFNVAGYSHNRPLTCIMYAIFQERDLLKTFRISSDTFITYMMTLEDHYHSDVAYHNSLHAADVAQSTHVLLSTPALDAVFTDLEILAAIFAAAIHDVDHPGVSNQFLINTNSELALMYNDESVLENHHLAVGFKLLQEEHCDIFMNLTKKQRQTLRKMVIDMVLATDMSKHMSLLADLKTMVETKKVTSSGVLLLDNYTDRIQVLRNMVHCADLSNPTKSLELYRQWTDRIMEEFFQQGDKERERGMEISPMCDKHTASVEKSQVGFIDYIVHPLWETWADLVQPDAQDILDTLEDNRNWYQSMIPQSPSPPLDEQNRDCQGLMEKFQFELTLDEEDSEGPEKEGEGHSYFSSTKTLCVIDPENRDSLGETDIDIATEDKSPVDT

| Structure (SMILES) | IC50 (Human recombinant PDE4B2) [nM] | EC50 [1] [nM] | IC50 [2] [nM] | EC50 [3] [nM] |
| --- | --- | --- | --- | --- |
| COc1cccc(Nc2c(C(N)=O)cnc3c(C)cc(S(=O)(=O)CCCCCCCCCCCNC[C@H](O)c4ccc(O)c5[nH]c(=O)ccc45)cc23)c1 [Example 45, (R)-6-((11-((2-hydroxy-2-(8-hydroxy-2-oxo-1,2-dihydroquinolin-5-yl)ethyl)amino)undecyl)sulfonyl)-4-((3-methoxyphenyl)amino)-8-methylquinoline-3-carboxamide] | < 100 | < 100 | < 100 | < 100 |
| COc1cccc(Nc2c(C(N)=O)cnc3c(C)cc(S(=O)(=O)c4cccc(CN(C)C(=O)c5cccc(CC(C)NC[C@H](O)c6ccc(O)c7[nH]c(=O)ccc67)c5)c4)cc23)c1 (stereo partly drawn) [Example 13, 6-[[3-[[3-[2-[[(R)-2-Hydroxy-2-(8-hydroxy-2-oxo-1,2-dihydroquinolin-5-yl)ethyl]amino]propyl]-N-methylbenzamido]methyl]phenyl]sulfonyl]-4-[(3-methoxyphenyl)amino]-8-methylquinoline-3-carboxamide] | < 100 | < 100 | < 100 | < 100 |
| COc1cccc(Nc2c(C(N)=O)cnc3c(C)cc(S(=O)(=O)c4cccc(C(=O)Nc5ccc(C#CCCCNC[C@H](O)c6ccc(O)c7c6OCC(=O)N7)cc5)c4)cc23)c1 [Example 32, (R)-6-((3-((4-(5-((2-hydroxy-2-(5-hydroxy-3-oxo-3,4-dihydro-2H-benzo[b][1,4]oxazin-8-yl)ethyl)amino)pent-1-yn-1-yl)phenyl)carbamoyl)phenyl)sulfonyl)-4-((3-methoxyphenyl)amino)-8-methylquinoline-3-carboxamide] | < 100 | < 100 | < 100 | < 100 |
| COc1cccc(Nc2c(C(N)=O)cnc3c(C)cc(S(=O)(=O)c4cccc(C(=O)NCCCCCCNC[C@H](O)c5cc(O)cc6c5OCC(=O)N6)c4)cc23)c1 [Example 23, (R)-6-((3-((6-((2-hydroxy-2-(6-hydroxy-3-oxo-3,4-dihydro-2H-benzo[b][1,4]oxazin-8-yl)ethyl)amino)hexyl)carbamoyl)phenyl)sulfonyl)-4-((3-methoxyphenyl)amino)-8-methylquinoline-3-carboxamide] | < 100 | < 100 | < 100 | < 100 |
| COc1cccc(Nc2c(C(N)=O)cnc3c(C)cc(S(=O)(=O)c4cccc(C(=O)N5CCC(OCCCCCCNC[C@H](O)c6ccc(O)c7[nH]c(=O)ccc67)CC5)c4)cc23)c1 [Example 15, (R)-6-((3-(4-((6-((2-hydroxy-2-(8-hydroxy-2-oxo-1,2-dihydroquinolin-5-yl)ethyl)amino)hexyl)oxy)piperidine-1-carbonyl)phenyl)sulfonyl)-4-((3-methoxyphenyl)amino)-8-methylquinoline-3-carboxamide] | < 100 | < 100 | < 100 | < 100 |
| COc1cccc(Nc2c(C(N)=O)cnc3c(C)cc(S(=O)(=O)c4cccc(CN(C)C(=O)c5cccc(CC(C)(C)NC[C@H](O)c6ccc(O)c7[nH]c(=O)ccc67)c5)c4)cc23)c1 [Example 19, (R)-6-((3-((3-(2-((2-hydroxy-2-(8-hydroxy-2-oxo-1,2-dihydroquinolin-5-yl)ethyl)amino)-2-methylpropyl)-N-methylbenzamido)methyl)phenyl)sulfonyl)-4-((3-methoxyphenyl)amino)-8-methylquinoline-3-carboxamide] | < 100 | < 100 | < 100 | < 100 |

Now from value to compound, other results behind:

| IC50 (Human recombinant PDE4B2) [nM] | EC50 [1] [nM] | IC50 [2] [nM] | Structure (SMILES) | EC50 [3] [nM] |
| --- | --- | --- | --- | --- |
| < 100 | < 100 | < 100 | COc1cccc(Nc2c(C(N)=O)cnc3c(C)cc(S(=O)(=O)c4cccc(C(=O)NCCCCCCNC[C@H](O)c5ccc(O)c(NS(C)(=O)=O)c5)c4)cc23)c1 [Example 43, (R)-6-[[3-[[6-[[2-Hydroxy-2-[4-hydroxy-3-(methylsulfonamido)phenyl]ethyl]amino]hexyl]carbamoyl]phenyl]sulfonyl]-4-[(3-methoxyphenyl)amino]-8-methylquinoline-3-carboxamide] | < 100 |
| < 100 | < 100 | < 100 | COc1cccc(Nc2c(C(N)=O)cnc3c(C)cc(S(=O)(=O)c4cccc(C(=O)N(C)CCCCCCNC[C@H](O)c5ccc(O)c6c5OCC(=O)N6)c4)cc23)c1 [Example 30, (R)-6-((3-((6-((2-hydroxy-2-(5-hydroxy-3-oxo-3,4-dihydro-2H-benzo[b][1,4]oxazin-8-yl)ethyl)amino)hexyl)(methyl)carbamoyl)phenyl)sulfonyl)-4-((3-methoxyphenyl)amino)-8-methylquinoline-3-carboxamide] | < 100 |
| < 100 | < 100 | < 100 | COc1cccc(Nc2c(C(N)=O)cnc3c(C)cc(S(=O)(=O)c4cccc(C(=O)NCCCCCCNC[C@H](O)c5ccc(O)c(CO)c5)c4)cc23)c1 [Example 41, (R)-6-[[3-[[6-[[2-Hydroxy-2-[4-hydroxy-3-(hydroxymethyl)phenyl]ethyl]amino]hexyl]carbamoyl]phenyl]sulfonyl]-4-[(3-methoxyphenyl)amino]-8-methylquinoline-3-carboxamide] | < 100 |
| < 100 | > 300 | > 300 | COc1cccc(Nc2c(C(N)=O)cnc3c(C)cc(S(=O)(=O)c4cccc(C(=O)N(C)CCCCCCNC[C@H](O)c5ccc(O)c(CO)c5)c4)cc23)c1 [Example 44, (R)-6-[[3-[[6-[[2-Hydroxy-2-(4-hydroxy-3-(hydroxymethyl]phenyl]ethyl]amino)hexyl](methyl)carbamoyl]phenyl]sulfonyl]-4-[(3-methoxyphenyl)amino]-8-methylquinoline-3-carboxamide] | < 100 |
| < 100 | < 100 | > 300 | COc1cccc(Nc2c(C(N)=O)cnc3c(C)cc(S(=O)(=O)c4cccc(C(=O)N(C)CCCCCCNC[C@H](O)c5ccc(O)c(NC=O)c5)c4)cc23)c1 [Example 28, (R)-6-((3-((6-((2-(3-formamido-4-hydroxyphenyl)-2-hydroxyethyl)amino)hexyl)(methyl)carbamoyl)phenyl)sulfonyl)-4-((3-methoxyphenyl)amino)-8-methylquinoline-3-carboxamide] | < 100 |
